Source: article PMC8154566, “Scaffold-Hopping Strategy on a Series of Proteasome Inhibitors Led to a Preclinical Candidate for the Treatment of Visceral Leishmaniasis” (Journal of Medicinal Chemistry, 2021)
Converted amounts (≈) assume the structure as drawn. Read-outs that look alike come from different tables or passages of the source.

Tests used:
[1] = system: THP-1 cells; test: THP-1 host cell read-out of the INMAC assay; assay type: cell-based; details: for EC50 / IC50: Homo sapiens
Protocol: (§1) Intramacrophage L. donovani Assay. This assay was conducted as previously described, except for […]

[2] = FaSSIF (fasted state simulated intestinal fluid) solubility; assay type: physicochemical
Protocol: (§2) Intramacrophage L. donovani Assay. This assay was conducted as previously described, except for compound exposure time, which was 96 h instead of 72 h.4
(§3) Intrinsic Clearance. This assay was conducted as previously described.5 Aqueous Solubility. This assay was conducted as previously described.6
(§4) FaSSIF Solublity. This assay was conducted as previously described.5,7
(§5) In vivo Mouse Efficacy Studies. In vivo studies were carried out as previously described, with minor modifications.7 Briefly: Control drug used was Miltefosine (30 mg/kg orally, twice daily for 5 days), vehicle used was 10% (v/v) dimethyl sulfoxide (DMSO), 40% polyethylene glycol 400, and 50% deionized water (10 Ml/kg orally, twice daily for 5 days) and mice were treated with test compound intraperitoneally (50 mg/kg twice daily for 5 days). 5
(§6) All regulated procedures on living animals were carried out under the authority of a project license issued by the Home Office under the Animals (Scientific Procedures) Act 1986, as amended in 2012 (and in compliance with EU Directive EU/2010/63). Infected animals had access to food and water ad libitum and were housed under a 12 hour light/dark photoperiod. Animals used in these experiments were female NMRI and Balb/c mice (Harlan, UK).
(§7) Test compound DDD01008714 was dosed orally (P.O.) at 10 mg free base/kg (dose volume 10 mL/kg; dose vehicle: 10% (vol/vol) dimethyl sulfoxide (DMSO), 40% polyethylene glycol 400 (PEG400) and 50% deionized water) to female NMRI mice (n = 3) or intravenously (I.V.) at 3 mg free base/kg (dose volume 5 mL/kg; dose vehicle: 10% (vol/vol) dimethyl sulfoxide (DMSO) and 90% Saline) to female Balb/c mice (n = 3). Blood samples (10 μL) where taken from the tail vein of […]

[3] = system: L. donovani amastigotes; test: INMAC assay: intramacrophage L. donovani in differentiated THP-1 cells; assay type: cell-based, Leishmania donovani; details: for EC50 / IC50: Leishmania donovani; for EC50: THP-1; for IC50: THP-1, read-out: LdInMac pIC50 (converted); for loss of potency: INMAC, relative to compound 4
Protocol: as §1

[4] = Mouse liver microsomal intrinsic clearance; assay type: in vitro ADME; details: for Mouse CLi: mouse liver microsomes; for Cli (mouse, ml/min/g): supplementary csv
Protocol: as §2, §3, §4, §5, §6, §7

[5] = Kinetic aqueous solubility by CLND; assay type: physicochemical
Protocol: We had successfully used these criteria in the hit to lead stage to identify compounds for in vivo proof-of-concept studies in another program, which subsequently led to the identification of preclinical candidate DDD853651/GSK3186899 active against CRK12.[7] […] A pharmacokinetic (PK) study was thus performed, dosed at 10 mg/kg po and 3 mg/kg iv. […] With the limited knowledge of the PK/PD drivers for the treatment of VL, we considered this to be a suitable profile for the progression of 4 into a previously reported mouse efficacy model of VL,[6],[7],[17],[18] where it was dosed twice daily at 50 mg/kg ip in order to further maximize exposure and give the best chance of achieving proof-of-concept.
as §2, §3, §4, §5, §6, §7

[6] = Table 6, kinetic, CLND, read-out: Aq. solubility
[7] = THP-1, Table 6, read-out: THP-1 pEC50 (converted)
[8] = THP-1, supplementary csv, read-out: THP1 pIC50 (converted)
[9] = Table 6, at least three replicates, SD ≤0.4, read-out: INMAC pEC50 (converted)
[10] = supplementary csv, read-out: Aqueous Solubility
[11] = THP-1, Table 5, read-out: THP-1 pEC50 (converted)
[12] = Table 5, at least three replicates, SD ≤0.4, read-out: INMAC pEC50 (converted)
[13] = Table 5, kinetic, CLND, read-out: Aq. solubility
[14] = THP-1, Table 2, read-out: THP-1 (pEC50) (converted)
[15] = Table 2, at least three replicates, SD ≤0.4, read-out: INMAC (pEC50) (converted)
[16] = Table 2, kinetic, CLND, read-out: Aq. solubility
[17] = THP-1, read-out: THP1 pIC50 (converted)

| Molecule | Mouse CLi ([4]; Table 6) [mL/min/g] | Cli (mouse, ml/min/g) [4] [mL/min/g] | solubility [5, 6] [µM] | EC50 [1, 7] [µM] | IC50 [1, 8] [µM] | solubility at 4 h ([2]; pH 6.5, Table 6) [µM] | solubility ([2]; supplementary csv) [µM] | EC50 [3, 9] [µM] | solubility [5, 10] [µM] | further results |
| --- | --- | --- | --- | --- | --- | --- | --- | --- | --- | --- |
| (R)-N-(4-Fluoro-3-(3-(3-methylmorpholino)imidazo[1,2-a]pyrimidin-7-yl)phenyl)pyrrolidine-1-carboxamide [Compound 39] | 2.7 | 2.7 | ≥362 |  |  |  |  |  |  | THP-1 pEC50 ([1]; Table 6): 4.3; THP1 pIC50 ([1]; supplementary csv): 4.3; FaSSIF solubility ([2]; Table 6): 1,322 μM; FaSSIF solubility ([2]; supplementary csv): >1000 µM; INMAC pEC50 ([3]; Table 6, at least three replicates, SD ≤0.4): 5.9; LdInMac pIC50 ([3]; supplementary csv): 5.9; Aqueous Solubility ([5]; supplementary csv): ≥ 360 µM |
| CC1(C)COCCN1c1cnc2nc(-c3cc(NC(=O)N4CCCC4)ccc3F)ccn12 [Compound 43, N-(3-(3-(3,3-Dimethylmorpholino)imidazo[1,2-a]pyrimidin-7-yl)-4-fluorophenyl)pyrrolidine-1-carboxamide] | 6.0 | 6 | 210 (≈ 92.1 µg/mL) | 50.1 | 50.1 | 627 (≈ 275 µg/mL) | 630 (≈ 276 µg/mL) | 0.794 |  |  |
| CC(=O)N1CCN(c2cnc3nc(-c4cc(NC(=O)N5CCCC5)ccc4F)ccn23)CC1 [Compound 36, N-(3-(3-(4-Acetylpiperazin-1-yl)imidazo[1,2-a]pyrimidin-7-yl)-4-fluorophenyl)pyrrolidine-1-carboxamide] | 1.5 | 1.5 | ≥ 381 | > 50.1 | > 50.1 | 1310 (≈ 591 µg/mL) | > 1000 | > 50.1 | ≥ 380 | IC50 [3]: > 50.1 µM |
| CC1(C)CN(c2cnc3nc(-c4cc(NC(=O)N5CCCC5)ccc4F)ccn23)CCO1 [Compound 42, N-(3-(3-(2,2-Dimethylmorpholino)imidazo[1,2-a]pyrimidin-7-yl)-4-fluorophenyl)pyrrolidine-1-carboxamide] | 2.9 | 2.9 | 247 (≈ 108 µg/mL) | 25.1 | 25.1 | 1840 (≈ 806 µg/mL) | > 1000 | 1 | 250 (≈ 110 µg/mL) |  |
| O=C(Nc1ccc(F)c(-c2cc3cc(N4CCOCC4)cnc3o2)c1)N1CCCC1 [Compound 20, N-(4-Fluoro-3-(5-morpholinofuro[2,3-b]pyridin-2-yl)phenyl)pyrrolidine-1-carboxamide] |  | 4 |  |  | > 50.1 |  |  |  |  | EC50 [1, 11]: > 50.1 µM; solubility at 4 h ([2]; pH 6.5, Table 5): 7 µM (≈ 2.87 µg/mL); EC50 [3, 12]: 0.0501 µM; Mouse CLi ([4]; Table 5): 4.0 mL/min/g; solubility [5, 13]: 25 µM (≈ 10.3 µg/mL) |
| COc1ccc(NC(=O)N2CCCC2)cc1-c1cn2cc(N3CCOCC3)cnc2n1 [Compound 7, N-(4-Methoxy-3-(6-morpholinoimidazo[1,2-a]pyrimidin-2-yl)phenyl)pyrrolidine-1-carboxamide] |  | <0.5 |  |  | > 50.1 |  |  |  | ≥ 430 | EC50 [1, 14]: > 50.1 µM; solubility at 4 h ([2]; pH 6.5, Table 2): 83 µM (≈ 35.1 µg/mL); loss of potency [3]: > 10 fold; IC50 [3]: > 50.1 µM; EC50 [3, 15]: > 50.1 µM; Mouse CLi ([4]; Table 2): <0.5 mL/min/g; solubility [5, 16]: ≥ 425 µM |
| O=C(Nc1cccc(-c2cn3cc(N4CCOCC4)cnc3n2)n1)N1CCCC1 [Compound 9, N-(6-(6-Morpholinoimidazo[1,2-a]pyrimidin-2-yl)pyridin-2-yl)pyrrolidine-1-carboxamide] |  | <0.5 |  |  | > 50.1 |  | 81 (≈ 31.9 µg/mL) |  | ≥ 480 | EC50 [1, 14]: > 50.1 µM; solubility at 4 h ([2]; pH 6.5, Table 2): 80 µM (≈ 31.5 µg/mL); loss of potency [3]: > 10 fold; IC50 [3]: > 50.1 µM; EC50 [3, 15]: > 50.1 µM; Mouse CLi ([4]; Table 2): <0.5 mL/min/g; solubility [5, 16]: ≥ 476 µM |
| O=C(Nc1ccc(F)c(-c2nc3ncc(N4CCOCC4)cn3n2)c1)N1CCCC1 [Compound 25, N-(4-Fluoro-3-(6-morpholino-[1,2,4]triazolo[1,5-a]pyrimidin-2-yl)phenyl)pyrrolidine-1-carboxamide] |  | 0.5 |  |  |  |  | 73 (≈ 30 µg/mL) |  | 400 (≈ 165 µg/mL) | IC50 [1, 17]: > 50.1 µM; EC50 [1, 11]: > 50.1 µM; solubility at 4 h ([2]; pH 6.5, Table 5): 74 µM (≈ 30.4 µg/mL); EC50 [3, 12]: 0.631 µM; Mouse CLi ([4]; Table 5): <0.5 mL/min/g; solubility [5, 13]: 354 µM (≈ 146 µg/mL) |
| O=C(Nc1ccc(F)c(-c2ccn3c(-c4ccccc4)cnc3n2)c1)N1CCCC1 [Compound 28, N-(4-Fluoro-3-(3-phenylimidazo[1,2-a]pyrimidin-7-yl)phenyl)pyrrolidine-1-carboxamide] | 2.5 | 2.5 | 39 (≈ 15.7 µg/mL) | 50.1 | 50.1 | 7 (≈ 2.81 µg/mL) | 8 (≈ 3.21 µg/mL) | 0.251 |  |  |
| CC(C)c1cnc2nc(-c3cc(NC(=O)N4CCCC4)ccc3F)ccn12 [Compound 30, N-(4-Fluoro-3-(3-isopropylimidazo[1,2-a]pyrimidin-7-yl)phenyl)pyrrolidine-1-carboxamide] | 4.6 | 4.6 | 231 (≈ 84.9 µg/mL) | 50.1 | 50.1 | 71 (≈ 26.1 µg/mL) | 70 (≈ 25.7 µg/mL) | 1.26 | 240 (≈ 88.2 µg/mL) |  |
| CC(C)Cc1cnc2nc(-c3cc(NC(=O)N4CCCC4)ccc3F)ccn12 [Compound 31, N-(4-Fluoro-3-(3-isobutylimidazo[1,2-a]pyrimidin-7-yl)phenyl)pyrrolidine-1-carboxamide] | 15 | 15 | 182 (≈ 69.4 µg/mL) | 63.1 | 63.1 | 178 (≈ 67.9 µg/mL) | 180 (≈ 68.7 µg/mL) | 0.501 | 180 (≈ 68.7 µg/mL) |  |
| CC1CN(c2cnc3nc(-c4cc(NC(=O)N5CCCC5)ccc4F)ccn23)CCO1 (stereo not drawn) [Compound 38, N-(4-Fluoro-3-(3-(2-methylmorpholino)imidazo[1,2-a]pyrimidin-7-yl)phenyl)pyrrolidine-1-carboxamide] | 1.7 | 1.7 | 248 (≈ 105 µg/mL) | 50.1 | 50.1 | 252 (≈ 107 µg/mL) | 250 (≈ 106 µg/mL) | 0.794 | 250 (≈ 106 µg/mL) |  |
| C[C@@H]1CN(c2cnc3nc(-c4cc(NC(=O)N5CCCC5)ccc4F)ccn23)C[C@H](C)O1 [Compound 41, N-(3-(3-((2S,6R)-2,6-Dimethylmorpholino)imidazo[1,2-a]pyrimidin-7-yl)-4-fluorophenyl)pyrrolidine-1-carboxamide] | 3.4 | 3.4 | 142 (≈ 62.3 µg/mL) | 63.1 |  | 372 (≈ 163 µg/mL) | 365 (≈ 160 µg/mL) | 1.58 | 170 (≈ 74.5 µg/mL) | IC50 [1, 17]: 63.1 µM |
| O=C(Nc1ccc(F)c(-c2cn3nc(N4CCOCC4)cnc3n2)c1)N1CCCC1 [Compound 23, N-(4-Fluoro-3-(2-morpholinoimidazo[1,2-b][1,2,4]triazin-6-yl)phenyl)pyrrolidine-1-carboxamide] |  | 0.9 |  |  |  |  | 140 (≈ 57.6 µg/mL) |  | 130 (≈ 53.5 µg/mL) | IC50 [1, 17]: > 50.1 µM; EC50 [1, 11]: > 50.1 µM; EC50 [3, 12]: 0.398 µM; Mouse CLi ([4]; Table 5): 0.9 mL/min/g; solubility [5, 13]: 126 µM (≈ 51.8 µg/mL) |
